Measurements published in publication PMC8308911, “Pharmacokinetic Study of Anti-osteoarthritic Compounds of a Standardized Fraction from Sphaeralcea Angustifolia” (Pharmaceuticals, 2021).
“And” between values parts separate entries of the source, which are not always exact repeats. Equal values may be shown once. Read-outs that look alike come from different tables or passages of the source.

Key:
[1] = Pharmacokinetics after single oral administration of the SaTSS standardized fraction (plasma, HPLC, PKSolver); format: in vivo, ICR mice
Method: Analyses of HPLC were carried out in a Waters system (2695 Separation module) coupled to a diode array detector (2996) with a 190–600-nm detection range and operated by the Manager Millennium software system (Empower 1; Waters Corporation, Mexico City, Mexico). Separations were performed in a Spherisorb-ODS RP-18 column (250 × 4.6 mm, 5 µm; Waters Corporation, Mexico) employing a constant temperature of 25 °C during the analyses. Samples (20 µL) were eluted at a 1.0 mL/min flow rate with a gradient of mobile phases of (A) high-purity H2O with trifluoroacetic acid to 0.5% v/v (TFA, Sigma-Aldrich, Mexico City, Mexico) and (B) high purity CH3CN, and compounds were detected by monitoring absorbance for tomentin and scopoletin at λ = 343 nm and for sphaeralcic acid at λ = 357 nm. The mobile phase was started with water (100%) and was maintained for 1 min, then solvent B was gradually incorporated at 5% (at 2 min), at 30% (at 4 min), and at 50% (at 16 min). During the next 4 min, solvent B was increased to 100%, and this proportion was maintained for 5 min. Finally, the following 3 min were utilized to return the mobile phase to the initial condition. […] Identification of scopoletin and tomentin as well as sphaeralcic acid was performed by comparing their retention times (tomentin—11.288 min, scopoletin—11.349 min, coumarin mixure—11.457 min, and sphaeralcic acid—23.319 min) and absorbance spectra.
The mice were previously anesthetized with sodium pentobarbital (PiSA Agropecuaria), then retro-orbital sinus blood was obtained using heparinized capillaries and distributed to heparinized tubes, and tubes were centrifuged at 3500 g for 7 min. The plasma obtained was transferred to new tubes and stored at −4 °C until use.
Plasma samples were extracted with CH3CN and TFA (w/v) 20% (1:1), then vials were centrifuged at 14,000 g for 10 min and the supernatant was transferred to another vial and left to dry at room temperature. The precipitate was resuspended with 1 mL of high-purity methanol (Merk, México) and filtered through Teflon membrane (13 mm, 0.45 µm, Life Science). Each filtered sample was injected into the HPLC equipment, and the concentrations of tomentin and scopoletin at λ = 343 nm and of sphaeralcic acid at λ = 357 nm were obtained by comparison with pre-built calibration curves.
To evaluate the suitability of the assay for the pharmacokinetic studies, 400 mg/kg of the active SaTSS fraction standardized in a mixture of tomentin and scopoletin (7.1 mg/400 mg), and sphaeralcic acid (34.6 mg/400 mg) was administered orally or intravenously to the mice. The dose of SaTSS fraction was chosen based on previous research of active compounds, as the median efective dose of each compound and detectable concentrations of them in the fraction. For oral pharmacokinetics, ten animals were used in each group at different times (0, 1.3, 3.3, 5, 10, 20, 40, 60, 80, 120, and 240 min). For intravenous pharmacokinetics, three animals were used in each group at different times (2, 4, 6, 8, 10, 15, 20, 30, and 60 min) Subsequently, the mice were anesthetized, retro-orbital sinus blood was obtained, plasma samples were extracted with CH3CN and TFA (w/v) 20% (1:1), and the extracts were analyzed by HPLC for coumarin (tomentin and scopoletin) and sphaeralcic acid quantification. Pharmacokinetic calculations were performed using the observed data. All data were subsequently processed using the PKSolver add-in program for Microsoft Excel written in Visual Basic for Applications. All values obtained were expressed in mean ± Standard Deviation (SD). For the pharmacokinetic assay, the selection was made either from a one-compartment or from a two-compartment model, with the use of both the Akaike Information Criterion (AIC) and the Schwarz Criterion (SC). […]

[2] = set-up: method as in PMID 23384552; dose or concentration left out as unconfirmed; conditions: feces and urine; ref [20]; cited from earlier work
[3] = oral 400 mg/kg SaTSS fraction, two-compartment model
[4] = oral 400 mg/kg SaTSS fraction, two-compartment model, 400 mg/kg
[5] = oral 400 mg/kg SaTSS fraction, two-compartment model, listed as Sphaeralcic Acid, 400 mg/kg
[6] = oral 400 mg/kg SaTSS fraction, two-compartment model, listed as sphaeralcic acid, 400 mg/kg

COc1c(C)cc2c(C(C)C)cc(C(=O)O)c(O)c2c1O [Sphaeralcic acid, sphaeralcic acid]
AUC(0-inf) ([1]; ICR, mouse, plasma, po, 400 mg/kg, oral 400 mg/kg SaTSS fraction, two-compartment model): 3470 ng·h/mL
AUC(0-t) ([1]; ICR, mouse, plasma, po, 400 mg/kg, oral 400 mg/kg SaTSS fraction, two-compartment model, read-out: AUC 0→240 (converted)): 2900 ng·h/mL
CL/F ([1]; ICR, mouse, plasma, po, 400 mg/kg, oral 400 mg/kg SaTSS fraction, two-compartment model, read-out: CL/F (apparent clearance related to bioavailability)): 170 mL/min/kg
Cmax ([1]; ICR, mouse, plasma, po, 400 mg/kg, oral 400 mg/kg SaTSS fraction, two-compartment model, read-out: Cmax): 10400 ng/mL
MRT ([1]; ICR, mouse, plasma, po, 400 mg/kg, oral 400 mg/kg SaTSS fraction, two-compartment model, read-out: MRT (mean residence time) (converted)): 40.2 min
Tmax ([1]; ICR, mouse, plasma, po, 400 mg/kg, oral 400 mg/kg SaTSS fraction, two-compartment model, read-out: Tmax (converted)): 4 min
Vd/F ([1]; ICR, mouse, plasma, po, 400 mg/kg, oral 400 mg/kg SaTSS fraction, two-compartment model, read-out: V/F (apparent volume of distribution related to bioavailability)): 1.31 L/kg
k el ([1]; ICR, mouse, plasma, po, 400 mg/kg, oral 400 mg/kg SaTSS fraction, two-compartment model, read-out: k10 (apparent first-order elimination rate constant from the central compartment) (converted)): 0.00217 s⁻¹
half-life ([1]; ICR, mouse, plasma, po, 400 mg/kg, oral 400 mg/kg SaTSS fraction, two-compartment model, read-out: t1/2β): 44.6 min
concentration at 1.3 min ([1]; ICR, mouse, plasma, oral single dose 400 mg/kg SaTSS fraction, 1.3 min, n = 10): 5040 ± 50 ng/mL
concentration at 3.3 min ([1]; ICR, mouse, plasma, oral single dose 400 mg/kg SaTSS fraction, 3.3 min, n = 10): 9920 ± 410 ng/mL
concentration at 5 min ([1]; ICR, mouse, plasma, oral single dose 400 mg/kg SaTSS fraction, 5 min, n = 10): 12800 ± 540 ng/mL
concentration at 10 min ([1]; ICR, mouse, plasma, oral single dose 400 mg/kg SaTSS fraction, 10 min, n = 10): 4030 ± 110 ng/mL
concentration at 20 min ([1]; ICR, mouse, plasma, oral single dose 400 mg/kg SaTSS fraction, 20 min, n = 10): 2770 ± 80 ng/mL
concentration at 40 min ([1]; ICR, mouse, plasma, oral single dose 400 mg/kg SaTSS fraction, 40 min, n = 10): 1380 ± 120 ng/mL
concentration at 80 min ([1]; ICR, mouse, plasma, oral single dose 400 mg/kg SaTSS fraction, 80 min, n = 10): 170 ± 30 ng/mL
concentration at 120 min ([1]; ICR, mouse, plasma, oral single dose 400 mg/kg SaTSS fraction, 120 min, n = 10): 0 ng/mL
concentration at 240 min ([1]; ICR, mouse, plasma, oral single dose 400 mg/kg SaTSS fraction, 240 min, n = 10): 0 ng/mL
products derived from biotransformation in plasma ([1]; after oral administration of SaTSS fraction): not detected
time at which the plasma concentration fell below LOQ ([1]; oral 400 mg/kg SaTSS fraction): 80 min
time of maximum (highest) observed plasma concentration ([1]; oral 400 mg/kg SaTSS fraction, observed sampling time): five
B (plasma concentration, peripheral compartment) [1, 3]: 1.845 µg/mL
k12 (transfer rate constant central to peripheral compartment) [1, 3]: 0.114 min⁻¹
k21 (transfer rate constant peripheral to central compartment) [1, 3]: 0.031 min⁻¹
α [1, 3]: 0.256 min⁻¹
β [1, 3]: 0.015 min⁻¹
Cmax [1, 4]: 10450 ng/mL
MRT (mean residence time) [1, 4]: 40.17 min
A (plasma concentration, central compartment) [1, 5]: 413.646 µg/mL
AUC 0→240 [1, 5]: 173.724 µg·min/mL
AUC 0→∞ [1, 5]: 208.058 µg·min/mL
CL/F (apparent clearance related to bioavailability) [1, 5]: 0.166 (mg)/(µg/mL)/min
Cmax [1, 5]: 10447 ng/mL
MRT (mean residence time) [1, 5]: 40.167 min
Tmax [1, 5]: 4.004 min
V/F (apparent volume of distribution related to bioavailability) [1, 5]: 1.309 (mg)/(µg/mL)
k10 (apparent first-order elimination rate constant from the central compartment) [1, 5]: 0.127 min⁻¹
ka (apparent first-order absorption rate constant) [1, 5]: 0.273 min⁻¹
t1/2ka (absorption half time) [1, 5]: 2.537 min
t1/2α [1, 5]: 2.698 min
t1/2β [1, 5]: 44.653 min
A (plasma concentration, central compartment) [1, 6]: 413 µg/mL
ka (apparent first-order absorption rate constant) [1, 6]: 0.27 min⁻¹ and 0.273 min⁻¹
t1/2ka (absorption half time) [1, 6]: 2.53 min
t1/2α [1, 6]: 2.70 min
route of elimination [2]: enterohepatic route
